From ChEMBL document CHEMBL4308841, “Synthesis, in vitro antiproliferative activity, and kinase inhibitory effects of pyrazole-containing diarylureas and diarylamides” (Eur J Med Chem, 2018)

Legend:
Type in all cases: functional
HL-60(TB) = assay: Growth inhibition of human HL-60(TB) cells assessed as cell growth at 10 uM incubated for 48 hrs by sulforhodamine B assay relative to control; details: HL-60, 48 h, read-out: Activity
MOLT-4 = assay: Growth inhibition of human MOLT4 cells assessed as cell growth at 10 uM incubated for 48 hrs by sulforhodamine B assay relative to control; details: MOLT-4, 48 h, read-out: Activity
RPMI-8226 = assay: Growth inhibition of human RPMI8226 cells assessed as cell growth at 10 uM incubated for 48 hrs by sulforhodamine B assay relative to control; details: RPMI-8226, 48 h, read-out: Activity
SR = assay: Growth inhibition of human SR cells assessed as cell growth at 10 uM incubated for 48 hrs by sulforhodamine B assay relative to control; details: read-out: Activity
A549 = assay: Growth inhibition of human A549/ATCC cells assessed as cell growth at 10 uM incubated for 48 hrs by sulforhodamine B assay relative to control; details: A549, 48 h, read-out: Activity
NCI-H226 = assay: Growth inhibition of human NCI-H226 cells assessed as cell growth at 10 uM incubated for 48 hrs by sulforhodamine B assay relative to control; details: NCI-H226, 48 h, read-out: Activity
HCC 2998 = assay: Growth inhibition of human HCC2998 cells assessed as cell growth at 10 uM incubated for 48 hrs by sulforhodamine B assay relative to control; details: HCC 2998, 48 h, read-out: Activity
SW-620 = assay: Growth inhibition of human SW620 cells assessed as cell growth at 10 uM incubated for 48 hrs by sulforhodamine B assay relative to control; details: SW-620, 48 h, read-out: Activity
SF-268 = assay: Growth inhibition of human SF268 cells assessed as cell growth at 10 uM incubated for 48 hrs by sulforhodamine B assay relative to control; details: SF-268, 48 h, read-out: Activity
SF-295 = assay: Growth inhibition of human SF295 cells assessed as cell growth at 10 uM incubated for 48 hrs by sulforhodamine B assay relative to control; details: SF-295, 48 h, read-out: Activity
SNB-19 = assay: Growth inhibition of human SNB19 cells assessed as cell growth at 10 uM incubated for 48 hrs by sulforhodamine B assay relative to control; details: SNB-19, 48 h, read-out: Activity
SNB-75 = assay: Growth inhibition of human SNB75 cells assessed as cell growth at 10 uM incubated for 48 hrs by sulforhodamine B assay relative to control; details: SNB-75, 48 h, read-out: Activity
U-251 = assay: Growth inhibition of human U251 cells assessed as cell growth at 10 uM incubated for 48 hrs by sulforhodamine B assay relative to control; details: U-251, 48 h, read-out: Activity
MDA-MB-435 = assay: Growth inhibition of human MDA-MB-435 cells assessed as cell growth at 10 uM incubated for 48 hrs by sulforhodamine B assay relative to control; details: MDA-MB-435, 48 h, read-out: Activity
UACC-257 = assay: Growth inhibition of human UACC257 cells assessed as cell growth at 10 uM incubated for 48 hrs by sulforhodamine B assay relative to control; details: UACC-257, 48 h, read-out: Activity
UACC-62 = assay: Growth inhibition of human UACC62 cells assessed as cell growth at 10 uM incubated for 48 hrs by sulforhodamine B assay relative to control; details: UACC-62, 48 h, read-out: Activity
IGROV-1 = assay: Growth inhibition of human IGROV1 cells assessed as cell growth at 10 uM incubated for 48 hrs by sulforhodamine B assay relative to control; details: IGROV-1, 48 h, read-out: Activity
OVCAR-3 = assay: Growth inhibition of human OVCAR3 cells assessed as cell growth at 10 uM incubated for 48 hrs by sulforhodamine B assay relative to control; details: OVCAR-3, 48 h, read-out: Activity
OVCAR-4 = assay: Growth inhibition of human OVCAR4 cells assessed as cell growth at 10 uM incubated for 48 hrs by sulforhodamine B assay relative to control; details: OVCAR-4, 48 h, read-out: Activity
OVCAR-5 = assay: Growth inhibition of human OVCAR5 cells assessed as cell growth at 10 uM incubated for 48 hrs by sulforhodamine B assay relative to control; details: OVCAR-5, 48 h, read-out: Activity
OVCAR-8 = assay: Growth inhibition of human OVCAR8 cells assessed as cell growth at 10 uM incubated for 48 hrs by sulforhodamine B assay relative to control; details: OVCAR-8, 48 h, read-out: Activity
NCI/ADR-RES = assay: Growth inhibition of human NCI/ADR-RES cells assessed as cell growth at 10 uM incubated for 48 hrs by sulforhodamine B assay relative to control; details: read-out: Activity
SK-OV-3 = assay: Growth inhibition of human SKOV3 cells assessed as cell growth at 10 uM incubated for 48 hrs by sulforhodamine B assay relative to control; details: SK-OV-3, 48 h, read-out: Activity
786-0 = assay: Growth inhibition of human 786-0 cells assessed as cell growth at 10 uM incubated for 48 hrs by sulforhodamine B assay relative to control; details: 786-0, 48 h, read-out: Activity
A498 = assay: Growth inhibition of human A498 cells assessed as cell growth at 10 uM incubated for 48 hrs by sulforhodamine B assay relative to control; details: A498, 48 h, read-out: Activity
ACHN = assay: Growth inhibition of human ACHN cells assessed as cell growth at 10 uM incubated for 48 hrs by sulforhodamine B assay relative to control; details: read-out: Activity
CAKI-1 = assay: Growth inhibition of human Caki1 cells assessed as cell growth at 10 uM incubated for 48 hrs by sulforhodamine B assay relative to control; details: CAKI-1, 48 h, read-out: Activity
RXF 393 = assay: Growth inhibition of human RXF393 cells assessed as cell growth at 10 uM incubated for 48 hrs by sulforhodamine B assay relative to control; details: RXF 393, 48 h, read-out: Activity
SN12C = assay: Growth inhibition of human SN12C cells assessed as cell growth at 10 uM incubated for 48 hrs by sulforhodamine B assay relative to control; details: read-out: Activity
DU-145 = assay: Growth inhibition of human DU145 cells assessed as cell growth at 10 uM incubated for 48 hrs by sulforhodamine B assay relative to control; details: DU-145, 48 h, read-out: Activity
MCF7 = assay: Growth inhibition of human MCF7 cells assessed as cell growth at 10 uM incubated for 48 hrs by sulforhodamine B assay relative to control; details: MCF7, 48 h, read-out: Activity
Hs-578T = assay: Growth inhibition of human Hs578T cells assessed as cell growth at 10 uM incubated for 48 hrs by sulforhodamine B assay relative to control; details: read-out: Activity
T47D = assay: Growth inhibition of human T47D cells assessed as cell growth at 10 uM incubated for 48 hrs by sulforhodamine B assay relative to control; details: read-out: Activity

SMILES	growth at 10 µM (HL-60(TB))	growth at 10 µM (MOLT-4)	growth at 10 µM (RPMI-8226)	growth at 10 µM (SR)	growth at 10 µM (A549)	growth at 10 µM (NCI-H226)	growth at 10 µM (HCC 2998)	growth at 10 µM (SW-620)	growth at 10 µM (SF-268)	growth at 10 µM (SF-295)	growth at 10 µM (SNB-19)	growth at 10 µM (SNB-75)	growth at 10 µM (U-251)	growth at 10 µM (MDA-MB-435)	growth at 10 µM (UACC-257)	growth at 10 µM (UACC-62)	growth at 10 µM (IGROV-1)	growth at 10 µM (OVCAR-3)	growth at 10 µM (OVCAR-4)	growth at 10 µM (OVCAR-5)	also measured
COc1cc(Cl)cc(-c2nn(-c3cccc(NC(=O)c4ccc(N5CCOCC5)c(C(F)(F)F)c4)c3)cc2-c2ccncc2)c1	2.73%	38.3%	25.2%	18.4%	45.5%	64.2%	52.3%	69.2%	67.3%	2.6%	75.5%	34.9%	32.3%	63.4%	63.5%	67.8%	96.5%	69.4%	67.9%	78.4%	growth at 10 µM (OVCAR-8): 42.1%; growth at 10 µM (NCI/ADR-RES): 46.1%; growth at 10 µM (SK-OV-3): 75.7%; growth at 10 µM (786-0): 43.1%; growth at 10 µM (A498): 31.4%; growth at 10 µM (ACHN): 50.1%; growth at 10 µM (CAKI-1): 46.7%; growth at 10 µM (RXF 393): 12.4%; growth at 10 µM (SN12C): 79.8%; growth at 10 µM (DU-145): 93.3%; growth at 10 µM (MCF7): 45.3%; growth at 10 µM (Hs-578T): 40.7%; growth at 10 µM (T47D): 49.2%
COc1cc(Cl)cc(-c2nn(-c3cccc(NC(=O)c4ccc(Cl)c(Cl)c4)c3)cc2-c2ccncc2)c1	94.1%	54.9%	46%	43.6%	59.7%	66.2%	77.8%	84.2%	82.4%	36.1%	71.5%	50.6%	64.1%	80.8%	84.2%	75.4%	71.6%	53.4%	58.6%	79.2%	growth at 10 µM (OVCAR-8): 58.4%; growth at 10 µM (NCI/ADR-RES): 61.4%; growth at 10 µM (SK-OV-3): 80.1%; growth at 10 µM (786-0): 74.1%; growth at 10 µM (A498): -0.94%; growth at 10 µM (ACHN): 63.9%; growth at 10 µM (CAKI-1): 63.6%; growth at 10 µM (RXF 393): 59.2%; growth at 10 µM (SN12C): 69.6%; growth at 10 µM (DU-145): 88.5%; growth at 10 µM (MCF7): 57.7%; growth at 10 µM (Hs-578T): 63.6%; growth at 10 µM (T47D): 63.2%
